pIC50: −log10 of the molar value. Oligonucleotides are written 5' to 3', each unit as a sugar letter and its base; * is a phosphorothioate linkage, no mark a phosphodiester; rarer units and linkages stand in square brackets, end groups in braces. Plain capitals give the bases only. l = locked nucleic acid (LNA); [5mC] = 5-methylcytosine; d = 2'-deoxy (DNA)
How the values were obtained:
[1] = system: human Survivin RNA; assay: Survivin mRNA knockdown in transfected 15PC3 cells by real-time PCR; format: cell-based
Procedure: Cell culturing and transfections: 15PC3 cells were seeded in 12-well plates and grown for two days at 37° C. (5% CO2) in DMEM supplemented with 10% FBS, Glutamax I and Gentamicin. When the cells were 60-70% confluent, they were transfected in duplicates with different concentrations of oligonucleotides (0.2-25 nM) using Lipofectamine 2000 (10 μg/ml). Transfections were carried out essentially as described by Dean et al. (1994, JBC 269:16416-16424). In short, cells were incubated for 10 min. with Lipofectamine in OptiMEM followed by addition of oligonucleotide to a total volume of 0.5 ml transfection mix per well. […] Cells were then harvested for protein and RNA analysis.
Total RNA was isolated using RNeasy mini kit (Qiagen). Cells were washed with PBS, and Cell Lysis Buffer (RTL, Qiagen) supplemented with 1% mercaptoethanol was added directly to the wells. After a few minutes, the samples were processed according to manufacturer's instructions.
First strand synthesis was performed using OmniScript Reverse Transcriptase kit according to the manufacturer's instructions (Qiagen). For each sample, 0.5 μg total RNA was adjusted to 12 μl and mixed with 0.2 μl poly (dT)12-18 (0.5 μg/μl) (Life Technologies), 2 μl dNTP mix (5 mM each), 2 μl 10× RT buffer, 0.5 μl RNAguard™ RNase Inhibitor (33 units/ml, Amersham) and 1 μl OmniScript Reverse Transcriptase followed by incubation at 37° C. for 60 min. and heat inactivation at 93° C. for 5 min.
To determine the relative Survivin mRNA level in oligonucleotide treated and untreated cells, the generated cDNA was used in quantitative PCR analysis using an iCycler from BioRad. The cDNA was diluted 5-fold and 8 μl was mixed with 52 μl Taqman probe master mix containing 30 μl Platinum Quantitative PCR SuperMix UDG 2×PCR master mix (Invitrogen), 3 μl 20× Taqman probe and primer mix (forward primer: 5′[…] (SEQ ID NO:29), final 0.9 μM. Reverse primer: 5′[…] (SEQ ID NO:30), final 0.6 μM and taqman probe: FAM-[…]-TAMRA (SEQ ID NO:31), final 0.1 μM) and 19 μl H2O. The 60 μl were dispersed in two wells (96 well plates) with […] in each well. For human Bcl-2 the PCR primers were: […]
The primers and probe were obtained from […] (France). To normalize any variance in sample preparation, the endogenous GAPDH mRNA was quantified using a pre-developed Taqman assay reagent from Applied Biosystems (4310884E) according to manufacturer's Instructions. Two-fold dilutions of cDNA, synthesised from untreated 15PC3 cells (expressing both Survivin and GAPDH), was used to prepare standard curves for the assays. The PCR program was as follows: 50° C. for 2 min., 95° C. for 10 min. followed by 40 cycles of 95° C. 15 sec., 60° C. 1 min. Relative quantities of Survivin mRNA were determined from the calculated threshold cycle using the iCycler IQ Real Time Detection System software.
In accordance with the present invention, a series of oligonucleotides were designed to target different regions of the human Survivin RNA, using published sequences (GenBank accession number NM_001168).
LNA oligonucleotides were evaluated for their potential to knockdown Survivin mRNA in 15PC3 cells. The data are presented as percentage down-regulation relative to mock transfected cells. Transcript steady state was monitored by Real-time PCR and normalised to the GAPDH transcript steady state, see Table 3. Note that all LNA C are 5-methyl-Cytosine.

[2] = system: 15PC3 cells; assay: Cell cycle analysis by propidium iodide staining and FACS; format: cell-based, human; conditions: transfected 15PC3 cells exposed to different concentrations of Taxol
Procedure: Cell culturing: Human prostate cancer 15PC3 cells (kindly provided by Dr. F Baas, Neurozintuigen Laboratory, AMC, The Netherlands) were seeded to a density of 8×10E5 cells in T75-flasks and grown for two days at 37° C. and 5% CO2 in DMEM supplemented with 10% FBS, Glutamax and Gentamicin. Two days following seeding cells were transfected with 2-10 nM SEQ ID NO. 2 using Lipofectamine at a final conc. of 7.5 μg/ml. Transfections were carried out as described by Dean et al. (1994, JBC 269 p. 16416 16424). In short cells were incubated with Lipofectamine diluted in OptiMEM for 7-10 min followed by the addition of the oligonucleotide to total volume of 8.7 ml per T75 flask. 4 hours following transfection cells were washed in OptiMEM and grown at 37° C. for 12-96 hours in complete growth medium with or without the addition of 2-100 nM Taxol (Sigma Aldrich). Cells were harvested for either mRNA extraction, Caspase 3/7 assay or fixed, stained with PI and analysed by FACS analysis.
Cell culturing and transfections: As in example 13.
Fixation and PI staining: Cells were washed in PBS, harvested and resuspended in 100 μl in ice cold PBS. 900 μl ice cold 70% […] and fixed cells were kept at −20 until use. […]
SEQ ID NO. 2 transfected 15PC3 cells were exposed to different concentrations of Taxol and analysed by Propidium Iodide staining and subsequent FACS analysis (FIG. 7a-c). […]

[3] = system: complementary RNA; assay: Measurement of melting temperature (Tm) of the duplex; format: binding; conditions: 3 μM, 10 mM sodium phosphate/100 mM NaCl/0.1 nM EDTA, pH 7.0
Procedure: Measurement of melting temperature (Tm) of the compounds: A 3 μM solution of SEQ ID NO. 2 in 10 mM sodium phosphate/100 mM NaCl/[…], pH 7.0 was mixed with its complement DNA/RNA 3 μM in 10 mM sodium phosphate/100 mM NaCl/[…], pH 7.0 at 90° C. for a minute and allowed to cool to room temperature. The Tm of the duplex was then determined by increasing the temperature 1° C./min. from 25 to 95° C. The Tm of SEQ ID NO.

[4] = Survivin mRNA down-regulation relative to mock, normalised to GAPDH, standard deviation in brackets, at least three experiments

5′-^MeCsTs^MeCsAsastscscsastsgsgs^MeCsAsGsc-3′ (l[5mC]*lT*l[5mC]*lA*dA*dT*dC*dC*dA*dT*dG*dG*l[5mC]*lA*lG*dC) [SEQ ID NO. 2]
Survivin mRNA expression ([1]; 2 nM combined with 10 nM Taxol, 24 hours and 48 hours, relative to mock (0.1% DMSO)): down-regulated | Survivin mRNA expression ([1]; 2 nM, 24 hours and 48 hours, relative to mock (0.1% DMSO)): down-regulated | Survivin mRNA expression ([1]; 10 nM, 24 hours, single agent or combined with control oligonucleotides): have effects on Survivin and Bcl-2 expression | pIC50 [1, 4]: 8.54 | IC75 [nM] [1, 4]: 4.8 (0.3) nM | Cells trapped in the G2 or G4 phase, combination with Taxol [2]: increasing amount of cells trapped in the G2 or even G4 phase | Tm (° C.) complementary RNA [3]: 75.3 °C

— patent publication US8173428B2, “LNA oligonucleotides and the treatment of cancer” (Santaris Pharma A/S, priority 2004, dated 2012)
